In patent publication US20120202856A1, “SUBSTITUTED BENZIMDAZOLE DERIVATIVES USEFUL AS TRPM8 RECEPTOR MODULATORS” (priority 2011, published 2012):
Where “and” joins values, the source holds several entries; their conditions need not be identical. Equal entries are not always repeated. Structures can show the parent of a compound that is named as a salt. Where two headings read alike, the source gives them in different places.

Key:
[1] = test system: icilin-induced “wet-dog” shakes (WDS); test: Inhibition of Icilin-Induced “Wet-Dog” Shakes in Rats; assay type: in vivo, Sprague Dawley rats; details: po; for inhibition in vivo at 10 mg/kg / inhibition in vivo at 3 mg/kg: read-out: Icilin % Inhibition @1.5 hrs
Experimental: The test compound was administered in 10% hydroxypropyl-β-cyclodextrin (HP-13-CD), p.o., 60 min before icilin.
% Inhibition=[1−(test compound WDS count/vehicle WDS count)]×100.

canine TRPM8 = target: T1, canine TRPM8 (Canis lupus familiaris, UniProt Q1A7N1); test: In Vitro Canine TRPM8 Functional Assay (intracellular Ca2+ fluorescence, icilin activation, HEK293 cells); assay type: cell-based; details: for IC50: HEK293 cells expressing canine TRPM8, icilin activation, individually measured values (batches/salt forms), read-out: IC50 (nM), in vitro TRP M8 Activity; for inhibition at 0.2 µM / % Inh (%) @0.2 μM, in vitro TRP M8 Activity: individually measured values; for % Inh (%) @0.2 μM, in vitro TRP M8 Activity: 0.2 μM test compound
T1 construct: expressed in transfected cells
T1 sequence (Q1A7N1 1-1104): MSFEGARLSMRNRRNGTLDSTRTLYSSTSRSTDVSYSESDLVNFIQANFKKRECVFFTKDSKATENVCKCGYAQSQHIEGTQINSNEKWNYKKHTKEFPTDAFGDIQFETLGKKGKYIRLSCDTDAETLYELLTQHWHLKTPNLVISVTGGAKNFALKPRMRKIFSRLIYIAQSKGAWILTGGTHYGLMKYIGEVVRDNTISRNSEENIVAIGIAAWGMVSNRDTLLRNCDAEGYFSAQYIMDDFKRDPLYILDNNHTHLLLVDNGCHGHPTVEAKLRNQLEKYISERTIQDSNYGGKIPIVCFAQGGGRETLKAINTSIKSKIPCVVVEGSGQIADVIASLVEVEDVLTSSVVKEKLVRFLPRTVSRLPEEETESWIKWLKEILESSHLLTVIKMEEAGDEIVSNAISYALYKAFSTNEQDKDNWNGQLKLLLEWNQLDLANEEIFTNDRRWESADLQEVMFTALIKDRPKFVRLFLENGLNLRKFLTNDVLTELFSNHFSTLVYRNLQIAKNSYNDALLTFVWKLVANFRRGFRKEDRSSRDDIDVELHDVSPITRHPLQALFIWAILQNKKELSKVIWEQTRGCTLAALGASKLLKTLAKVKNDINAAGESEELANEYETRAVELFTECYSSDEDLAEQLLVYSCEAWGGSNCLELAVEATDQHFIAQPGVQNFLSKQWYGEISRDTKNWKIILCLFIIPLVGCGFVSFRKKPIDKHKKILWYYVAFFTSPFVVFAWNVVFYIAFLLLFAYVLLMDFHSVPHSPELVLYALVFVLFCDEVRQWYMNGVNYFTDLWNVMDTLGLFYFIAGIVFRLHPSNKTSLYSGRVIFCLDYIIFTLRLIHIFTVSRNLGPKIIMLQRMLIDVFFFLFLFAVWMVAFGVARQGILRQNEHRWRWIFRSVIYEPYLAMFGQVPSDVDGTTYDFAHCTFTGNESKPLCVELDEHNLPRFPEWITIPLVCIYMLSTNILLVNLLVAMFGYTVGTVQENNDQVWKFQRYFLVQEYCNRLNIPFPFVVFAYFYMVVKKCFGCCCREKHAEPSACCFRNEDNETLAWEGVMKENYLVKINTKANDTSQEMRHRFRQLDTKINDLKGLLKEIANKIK
Summary of the method: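 Inhibition of icilin-evoked calcium influx measured by Calcium 3 fluorescence (FLIPR or FDSS) in canine TRPM8 HEK293 cells. After basal subtraction, data expressed as percent of maximum; quadruplicate means fitted by sigmoidal dose–response to give IC50.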

[2] = test system: CCI-induced cold hypersensitivity; test: Chronic Constriction Injury (CCI)-Induced Model of Neuropathic Pain, Acetone-Induced Hypersensitivity; assay type: in vivo, Sprague-Dawley rats; details: rat, p.o., acetone-induced withdrawals, 2 h after administration
Source text: Male Sprague-Dawley rats (225-450 g; n=5-8/treatment) were used to evaluate the ability of test compounds to reverse CCl-induced cold hypersensitivity. Four loose ligatures of 4-0 chromic gut were surgically placed around the left sciatic nerve under inhalation anesthesia as described by Bennett et al. (BENNETT, G. J., et al., “A peripheral mononeuropathy in rat that produces disorder of pain sensation like those seen in man”, Pain, 1988, pp 87-107, Vol. 33(1)). Fourteen to 35 days following CCl surgery, subjects were placed in elevated observation chambers containing wire mesh floors, and five applications of acetone (0.05 mL/application separated by approximately 5 min) were spritzed onto the plantar surface of the paw using a multidose syringe. An abrupt withdrawal or lifting of the paw was considered a positive response. The number of positive responses was recorded for each rat over the five trials. […] The number of withdrawals was re-determined at 2 hr after compound administration. […] Results are presented below as a percent inhibition of […], which was calculated for each subject and then averaged by treatment as follows: […]

humans = details: 5-10 mg ingested orally; cited from earlier work
rats = details: cited from earlier work
[3] = rat, p.o., dose 10 mg/kg, 1.5 hrs
[4] = rat, p.o., dose 3 mg/kg, 1.5 hrs
[5] = HEK293, 0.2 μM test compound, read-out: % Inh (%) @0.2 μM, in vitro TRP M8 Activity

| IC50 (canine TRPM8) | inhibition at 0.2 µM (canine TRPM8; [5]) | Compound | inhibition in vivo at 3 mg/kg [1, 4] | also measured |
| --- | --- | --- | --- | --- |
| 3.7 nM and 4.6 nM and 3.8 nM | – | Cl.Cn1nc(C(C)(C)C)c(Cl)c1-c1nc2cc(-c3c(F)cccc3F)ccc2[nH]1 [Compound 85, 2-(5-tert-Butyl-4-chloro-2-methyl-2H-pyrazol-3-yl)-5-(2,6-difluoro-phenyl)-1H-benzimidazole hydrochloride] | – | inhibition in vivo at 10 mg/kg [1, 3]: 96.4%; CCI % Inhibition @ 2 h [2]: 34.3% |
| 10.7 nM and 5.3 nM | 100% | Cn1nc(C(C)(C)C)c(Cl)c1-c1nc2cc(-c3c(F)cccc3OC(F)(F)F)cc(Cl)c2[nH]1 [Compound 130, 2-(5-tert-Butyl-4-chloro-2-methyl-2H-pyrazol-3-yl)-7-chloro-5-(2-fluoro-6-trifluoromethoxy-phenyl)-1H-benzimidazole hydrochloride] | 22.7% | – |
| 3.6 nM and 5.2 nM and 2.4 nM | – | Cn1nc(C(C)(C)C)c(Cl)c1-c1nc2cc(-c3ccccc3Cl)ccc2[nH]1 [Compound 89, 2-(5-tert-Butyl-4-chloro-2-methyl-2H-pyrazol-3-yl)-5-(2-chloro-phenyl)-1H-benzimidazole hydrochloride] | – | inhibition in vivo at 10 mg/kg [1, 3]: 91.5% |
| 22 nM and 24 nM (2×) and 29 nM | – | CC(C)c1cc(-c2nc3cc(-c4ccccc4C(F)(F)F)ccc3[nH]2)on1 [Compound 3, 2-(3-Isopropylisoxazol-5-yl)-5-(2-trifluoromethylphenyl)-1H-benzimidazole sodium salt] | – | inhibition in vivo at 30 mg/kg ([1]; rat, 1.5 hrs): 48.3% |
| 14 nM and 8.2 nM and 2.2 nM | – | Cn1nc(C(C)(C)C)c(Cl)c1-c1nc2cc(-c3ccccc3C(F)(F)F)ccc2[nH]1 [Compound 50, 2-(5-tert-Butyl-4-chloro-2-methyl-2H-pyrazol-3-yl)-5-(2-trifluoromethylphenyl)-1H-benzimidazole sodium salt] | – | inhibition in vivo at 10 mg/kg [1, 3]: 47.4% |
| 14 nM and 17.3 nM | – | Cn1nc(C(C)(C)C)cc1-c1nc2cc(-c3c(F)cccc3F)ccc2[nH]1 [Compound 58, 2-(5-tert-Butyl-2-methyl-2H-pyrazol-3-yl)-5-(2,6-difluoro-phenyl)-1H-benzimidazole trifluoroacetic acid salt] | – | inhibition in vivo at 5.6 mg/kg ([1]; rat, 1.5 hrs): 11.2% |
| 12.4 nM | 100% | Cn1nc(C(C)(C)C)c(C#N)c1-c1nc2cc(-c3ccccc3OC(F)(F)F)cc(Cl)c2[nH]1 [Compound 170, 3-tert-Butyl-5-[7-chloro-5-(2-trifluoromethoxy-phenyl)-1H-benzimidazol-2-yl]-1-methyl-1H-pyrazole-4-carbonitrile sodium salt] | 4.3% | – |
| 3.1 nM and 7.7 nM | – | Cn1nc(C(C)(C)C)c(Cl)c1-c1nc2cc(-c3c(F)cccc3C(F)(F)F)ccc2[nH]1 [Compound 86, 2-(5-tert-Butyl-4-chloro-2-methyl-2H-pyrazol-3-yl)-5-(2-fluoro-6-trifluoromethyl-phenyl)-1H-benzimidazole hydrochloride] | – | inhibition in vivo at 10 mg/kg [1, 3]: 98.7% |
| 8.2 nM and 9 nM | 100% | Cc1c(C(C)(C)C)nn(C)c1-c1nc2cc(-c3c(F)cccc3F)cc(Cl)c2[nH]1 [Compound 136, 2-(5-tert-Butyl-2,4-dimethyl-2H-pyrazol-3-yl)-7-chloro-5-(2,6-difluoro-phenyl)-1H-benzimidazole hydrochloride] | 61.6% | – |
| 7.4 nM and 5 nM and 9.3 nM | – | Cl.Cn1nc(C(C)(C)C)c(Cl)c1-c1nc2cc(-c3ccccc3F)ccc2[nH]1 [Compound 90, 2-(5-tert-Butyl-4-chloro-2-methyl-2H-pyrazol-3-yl)-5-(2-fluoro-phenyl)-1H-benzimidazole hydrochloride] | – | inhibition in vivo at 5.6 mg/kg ([1]; rat, 1.5 hrs): 52.7%; CCI % Inhibition @ 2 h [2]: 22.5% |
| 5 nM and 14.4 nM | – | Cc1cc(-c2ccccc2C(F)(F)F)cc2nc(-c3cc(C(C)(C)C)nn3C)[nH]c12 [Compound 79, 2-(5-tert-Butyl-2-methyl-2H-pyrazol-3-yl)-7-methyl-5-(2-trifluoromethylphenyl)-1H-benzimidazole hydrochloride] | – | inhibition in vivo at 5.6 mg/kg ([1]; rat, 1.5 hrs): 20.1% |
| 8 nM | 100% | Cn1nc(C(C)(C)C)c(C#N)c1-c1nc2cc(-c3ccccc3C(F)(F)F)cc(Cl)c2[nH]1 [Compound 169, 3-tert-Butyl-5-[7-chloro-5-(2-trifluoromethyl-phenyl)-1H-benzimidazol-2-yl]-1-methyl-1H-pyrazole-4-carbonitrile sodium salt] | 34% | – |
| 12 nM and 15 nM and 10 nM | – | CC(C)(C)c1cc(-c2nc3cc(-c4ccccc4OC(F)(F)F)ccc3[nH]2)on1.[Na] [Compound 10, 2-(3-tert-Butylisoxazol-5-yl)-5-(2-trifluoromethoxyphenyl)-1H-benzimidazole sodium salt] | – | inhibition in vivo at 30 mg/kg ([1]; rat, 1.5 hrs): 97.3%; CCI % Inhibition @ 2 h [2]: 57.1% |
| 2.2 nM and 5.6 nM and 4.9 nM | 100% | Cn1nc(C(C)(C)C)c(Cl)c1-c1nc2cc(-c3ccccc3Cl)cc(Cl)c2[nH]1.[Na] [Compound 115, 2-(5-tert-Butyl-4-chloro-2-methyl-2H-pyrazol-3-yl)-7-chloro-5-(2-chloro-phenyl)-1H-benzimidazole sodium salt] | 45% | % Inh (%) @0.2 μM, in vitro TRP M8 Activity (canine TRPM8): 100, 100% |
| – | – | O=C1NC(c2cccc([N+](=O)[O-])c2)=CCN1c1ccccc1O [Icilin] | – | coldness in the mouth, pharynx and chest lasting (humans): 30 to 60 min; behaviour caused in initial in vivo testing (rats): “wet-dog” shakes |
| 2.3 nM and 7 nM and 4.3 nM and 4.7 nM and 3.2 nM | 99% | Cn1nc(C(C)(C)C)c(C#N)c1-c1nc2cc(-c3ccccc3Cl)cc(Cl)c2[nH]1.[Na] [Compound 168, 3-tert-Butyl-5-[7-chloro-5-(2-chloro-phenyl)-1H-benzimidazol-2-yl]-1-methyl-1H-pyrazole-4-carbonitrile sodium salt] | 86% | % Inh (%) @0.2 μM, in vitro TRP M8 Activity (canine TRPM8; sodium salt, 0.2 µM): 101% and 100% (2×); CCI % Inhibition @ 2 h [2]: 74.3% |
| 7 nM and 11.3 nM and 8.4 nM | 100% | Cl.Cn1nc(C(C)(C)C)c(Cl)c1-c1nc2cc(-c3ccccc3OC(F)(F)F)cc(Cl)c2[nH]1 [Compound 117, 2-(5-tert-Butyl-4-chloro-2-methyl-2H-pyrazol-3-yl)-7-chloro-5-(2-trifluoromethoxy-phenyl)-1H-benzimidazole hydrochloride] | 7.7% | % Inh (%) @0.2 μM, in vitro TRP M8 Activity (canine TRPM8): 100, 100% |

| Compound | IC50 (canine TRPM8) | inhibition at 0.2 µM (canine TRPM8; [5]) | inhibition in vivo at 3 mg/kg [1, 4] | also measured |
| --- | --- | --- | --- | --- |
| Cn1nc(C(C)(C)C)c(Cl)c1-c1nc2cc(-c3c(F)cccc3C(F)(F)F)cc(Cl)c2[nH]1.[Na] [Compound 113, 2-(5-tert-Butyl-4-chloro-2-methyl-2H-pyrazol-3-yl)-7-chloro-5-(2-fluoro-6-trifluoromethyl-phenyl)-1H-benzimidazole sodium salt] | 2.4 nM and 3.5 nM and 4.4 nM | – | – | inhibition in vivo at 3 mg/kg ([1]; Rattus norvegicus, 1.5 h): 2.8%; % Inh (%) @0.2 μM, in vitro TRP M8 Activity (canine TRPM8; sodium salt, 0.2 µM): 100%; inhibition at 0.2 µM (canine TRPM8; HEK293, read-out: % Inh (%) @0.2 μM, in vitro TRP M8 Activity, 0.2 μM test compound): 99% |
| Cc1c(C(C)(C)C)nn(C)c1-c1nc2cc(-c3ccccc3C(F)(F)F)ccc2[nH]1 [Compound 76, 2-(5-tert-Butyl-2,4-dimethyl-2H-pyrazol-3-yl)-5-(2-trifluoromethylphenyl)-1H-benzimidazole sodium salt] | 6 nM | – | – | inhibition in vivo at 10 mg/kg ([1]; Rattus norvegicus, 1.5 h): 98.6% |
| Cn1nc(C(C)(C)C)cc1-c1nc2cc(-c3c(F)cccc3C(F)(F)F)ccc2[nH]1 [Compound 61, 2-(5-tert-Butyl-2-methyl-2H-pyrazol-3-yl)-5-(2-fluoro-6-trifluoromethylphenyl)-1H-benzimidazole sodium salt] | 7.8 nM and 10 nM | – | – | inhibition in vivo at 10 mg/kg ([1]; Rattus norvegicus, 1.5 h): 38.8% |
| Cc1c(C(C)(C)C)nn(C)c1-c1nc2cc(-c3c(F)cccc3C(F)(F)F)ccc2[nH]1 [Compound 78, 2-(5-tert-Butyl-2,4-dimethyl-2H-pyrazol-3-yl)-5-(2-fluoro-6-trifluoromethyl-phenyl)-1H-benzimidazole sodium salt] | 1 nM | – | – | inhibition in vivo at 10 mg/kg ([1]; Rattus norvegicus, 1.5 h): 99.3% |
| CCn1nc(C(C)(C)C)cc1-c1nc2cc(-c3ccccc3C(F)(F)F)ccc2[nH]1 [Compound 44, 2-(5-tert-Butyl-2-ethyl-2H-pyrazol-3-yl)-5-(2-trifluoromethylphenyl)-1H-benzimidazole sodium salt] | 15.8 nM | – | – | inhibition in vivo at 10 mg/kg ([1]; Rattus norvegicus, 1.5 h): 30% |
